Laboratory results: PMC11809512, “Looking for approved-medicines to be repositioned as anti-Trypanosoma cruzi agents. Identification of new chemotypes with good individual- or in combination-biological behaviours” (Memórias do Instituto Oswaldo Cruz, 2025)
Read-outs that look alike come from different tables or passages of the source.

Tests used:
[1] = tested on: epimastigotes of T. cruzi (Tulahuen 2 strain, DTU Tc VI); assay: Screening / IC50 against T. cruzi epimastigotes (growth, absorbance 610 nm, 5 days); format: cell-based, Trypanosoma cruzi; conditions: for SIepi: SIepi = IC50,J774.1A/IC50,epi; for IC50: Trypanosoma cruzi, 120 h, read-out: IC50,epi; for anti-epimastigote activity in the initial screening (in words): 25 µM or 100 µg/mL, cut-off more than 65% inhibition
Procedure: (§1) Screening - Entities, dissolved in dimethylsulfoxide (DMSO, Sigma) before use and then diluted in a culture milieu, were firstly tested against epimastigotes of T. cruzi [Tulahuen 2 strain, discrete typing unit (DTU) Tc VI] as previously described.[14] ^, [15] […] The system was incubated at 28 °C for five days and to assess cell proliferation, cell density was monitored at 610 nm at time 0 (Ap0) and five days post incubation (Ap). All measures were normalised to the control population at day 0 (Ac0) and at day 5 (Ac5). Control parasites were incubated with 0.4% DMSO, corresponding to the highest DMSO concentration of the well. The percentage of parasite inhibition was calculated as: […]. This assay was independently performed three times. […] Secondly,[16] Vero (ATCC® CCL-81™) cells were infected with T. cruzi metacyclic trypomastigotes from 15 days old Dm28 clone (DTU Tc I) epimastigote cultures. Subsequently, the trypomastigotes harvested from this culture were used to infect further Vero cell cultures at a multiplicity of infection of 10. These trypomastigote-infected Vero cell cultures were incubated at 37 °C in humidified air and 5% CO2 for five to seven days. After this time, cellular trypomastigotes were collected from the supernatant by centrifugation at 3,000 × g for 10 min. The trypomastigote-containing pellets were resuspended in RPMI media supplemented with 5% foetal bovine serum (FBS) and penicillin/streptomycin at a final density of 1 × 10^8 parasites/mL. For viability assays, 1 × 10^7 trypomastigotes were seeded in black 96 well plates in RPMI and incubated with increasing concentrations of the entities under study for 24 h. Viability was analysed using resazurin, which is reduced to highly fluorescent resorufin. 50 μL of resazurin solution (2 mg/mL in RPMI) were added to each well and incubated for 4 h at 37 °C. Fluorescence (excitation 530 nm / emission 590 nm) was measured in a Thermo Scientific Varioskan® Flash Multimode plate spectrofluorimeter instrument. Untreated parasites were used as negative controls (100% of viability). […] Thirdly, for infection persistence analysis,[16] trypomatigotes Vero cells (at a multiplicity of infection of 10) growing in RPMI were trypsinised and replated in 24-wll plates (2-3 × 10^5 cells/well). […] After 24 h of incubation, cells were washed with phosphate-buffered saline (PBS), fixed with 4% paraformaldehyde, and stained with DAPI. Infected cells and amastigotes per cell were counted from randomly selected fields (400 cells per conditions). Two independent infections with trypomastigotes pre-treated with entities by two independent technicians were analysed. The percentage of uninfected Vero cells over total cells, as well as the percentage of decrease in the number of amastigotes per infected cell, was counted for each studied compound concentration tested and normalised against control untreated parasites.

J774.1A macrophages = assay: Cytotoxicity on macrophages (MTT, 48 h); format: cell-based; conditions: Macrophage, read-out: IC50,J774.1A
Procedure: Cytotoxicity - J774.1A macrophages (ATCC® TIB67™) were grown in DMEM milieu supplemented with 10% […] FBS, 1% L-glutamine, 1% streptomycin, and 100 units/mL penicillin. Cell viability was assessed using the MTT protocol. […] Cells were grown in 96-well plates (5 × 10^4 cells/well) for 24 h. Cultures were carried out at 37 °C in a humidified atmosphere with 5% CO2 and incubated with the compounds at different concentrations for 48 h. After incubation, the milieu was removed, and the cells were treated with 100 μL of 0.4 mg/mL MTT for 4 h at 37 °C. Subsequently, 100 μL of DMSO was added to the mixture. The solubilised formazan product was quantified through absorbance measurements at 570 nm. The absorbance values were transformed to the percentage of cytotoxicity compared to the negative controls.

epimastigote T. cruzi = assay: Anti-epimastigote activity in modified milieu (excess Ca2+, glutamate or N-acetyl-L-cysteine, 1 mM); format: cell-based; conditions: Trypanosoma cruzi; for inhibition at 25 µM: read-out: Percentage of growth inhibition at 25 µM
Procedure: Three controls of untreated parasites and containing excess of calcium (II), glutamate or N-acetyl-L-cysteine (1 mM) were included. All treated and untreated wells contain no more than 0.4% of DMSO. Controls were used to calculate the relative proliferation in the treatment wells. Assays were performed in triplicate for all cases.

[2] = tested on: amastigote forms of T. cruzi in Vero cells (Dm28 clone, DTU Tc I); format: cell-based; conditions: 24 h
Procedure: as §1
The number of amastigotes per cell as well as the number of infected cells was then counted.

[3] = tested on: Trypanosoma cruzi trypomastigotes (Dm28c); assay: Trypomastigote viability (resazurin, 24 h); format: cell-based; conditions: fixed concentrations, Fig. 1
Procedure: Screening - Entities, dissolved in dimethylsulfoxide (DMSO, Sigma) before use and then diluted in a culture milieu, were firstly tested against epimastigotes of T. cruzi [Tulahuen 2 strain, discrete typing unit (DTU) Tc VI] as previously described.[14] ^, [15] […] The system was incubated at 28 °C for five days and to assess cell proliferation, cell density was monitored at 610 nm at time 0 (Ap0) and five days post incubation (Ap). All measures were normalised to the control population at day 0 (Ac0) and at day 5 (Ac5). Control parasites were incubated with 0.4% DMSO, corresponding to the highest DMSO concentration of the well. The percentage of parasite inhibition was calculated as: (Ap - Ap0)/(Ac5 - Ac0) × 100. This assay was independently performed three times. […] Secondly,[16] Vero (ATCC® CCL-81™) cells were infected with T. cruzi metacyclic trypomastigotes from 15 days old Dm28 clone (DTU Tc I) epimastigote cultures. […] Viability was analysed using resazurin, which is reduced to highly fluorescent resorufin. […] Fluorescence (excitation 530 nm / emission 590 nm) was measured in a Thermo Scientific Varioskan® Flash Multimode plate spectrofluorimeter instrument. […] Infected cells and amastigotes per cell were counted from randomly selected fields (400 cells per conditions). Two independent infections with trypomastigotes pre-treated with entities by two independent technicians were analysed. […]

[4] = epimastigotes Tulahuen 2, 5 days
[5] = Ca2+ 1 mM, read-out: IC50,epi with excess of Ca2+

| Compound | SIepi [1] | IC50 [1, 4] [µM] | IC50 (J774.1A macrophages; macrophages, MTT) [µM] | also measured |
| --- | --- | --- | --- | --- |
| O=C(Cn1ccnc1[N+](=O)[O-])NCc1ccccc1 [Bnz, Benznidazole] | 50.2 | 4.93 | 247 | – |
| CCC(C)(C)C(=O)O[C@H]1C[C@@H](C)C=C2C=C[C@H](C)[C@H](CC[C@@H]3C[C@@H](O)CC(=O)O3)[C@H]21 [Simv, Simvastatin] | 0.88 | 7.36 | 6.5 | – |
| NCC1(CC(=O)O)CCCCC1 [Gaba, Gabapentin] | – | – | – | IC50 ([1]; TULAHUEN): 6.01 µM; IC50 (J774.1A macrophages): 19.1 µM; IC50 (epimastigote T. cruzi; read-out: IC50,epi with excess of Ca2+): > 25 µM; IC50 (epimastigote T. cruzi; read-out: IC50,epi with excess of glutamate): > 25 µM |
| CS(=O)(=O)CCNCc1ccc(-c2ccc3ncnc(Nc4ccc(OCc5cccc(F)c5)c(Cl)c4)c3c2)o1 [Lapa, Lapatinib] | – | 16.6 | 7.6 | – |
| CN(C/C=C/C#CC(C)(C)C)Cc1cccc2ccccc12 [Terb, Terbinafine] | 3.05 | 21.4 | 65 | %dnac: percentage of decrease in the number of amastigotes per treated Vero cell respect to control ([2]; 6.25 µM): 20%; %ucell: percentage of uninfected Vero cells with amastigotes respect to untreated parasites ([2]; 6.25 µM): 4%; %dnac: percentage of decrease in the number of amastigotes per treated Vero cell respect to control ([2]; 12.5 µM): 23%; %ucell: percentage of uninfected Vero cells with amastigotes respect to untreated parasites ([2]; 12.5 µM): 15% |
| CC(=O)N1CCN(c2ccc(OCC3COC(Cn4ccnc4)(c4ccc(Cl)cc4Cl)O3)cc2)CC1 (centres unmarked) [Ket, Ketoconazole] | 2.60 | 5.13 | 13.3 | – |
| C[C@H]1c2cccc(O)c2C(=O)C2=C(O)[C@]3(O)C(=O)C(C(N)=O)=C(O)[C@@H](N(C)C)[C@@H]3[C@@H](O)[C@@H]21 [Dox, Doxycycline] | 1.24 | 19.1 | 23.8 | – |
| CCN(CC)CCNC(=O)c1c(C)[nH]c(/C=C2\C(=O)Nc3ccc(F)cc32)c1C [Sun, Sunitinib] | – | – | – | anti-epimastigote activity in the initial screening (in words) [1]: did not display anti-T. cruzi activities in the assayed conditions |
| CC1CS(=O)(=O)CCN1/N=C/c1ccc([N+](=O)[O-])o1 (centres unmarked) [Nfx, nifurtimox] | – | – | – | inhibition at 25 µM (epimastigote T. cruzi; with Ca2+ (1 mM)): 61%; inhibition at 25 µM (epimastigote T. cruzi; with Glu (1 mM)): 55%; inhibition at 25 µM (epimastigote T. cruzi; with NAC (1 mM)): 20%; inhibition at 25 µM (epimastigote T. cruzi; without Ca2+): 70%; inhibition at 25 µM (epimastigote T. cruzi; without Glu): 70%; inhibition at 25 µM (epimastigote T. cruzi; without NAC): 74% |
| O=C1CN(/N=C/c2ccc([N+](=O)[O-])o2)C(=O)N1 [Nitrof, Nitrofurantoin] | 4.59 | 13.3 | 61.1 | – |
| NC(=O)NN=C1C=Cc2ccccc2C1=O [Naft, Naftazone] | 135.7 | 0.75 | 102 | %dnac: percentage of decrease in the number of amastigotes per treated Vero cell respect to control ([2]; 6.25 µM): 0%; %ucell: percentage of uninfected Vero cells with amastigotes respect to untreated parasites ([2]; 6.25 µM): 0%; %dnac: percentage of decrease in the number of amastigotes per treated Vero cell respect to control ([2]; 12.5 µM): 0%; %ucell: percentage of uninfected Vero cells with amastigotes respect to untreated parasites ([2]; 12.5 µM): 0%; %dnac: percentage of decrease in the number of amastigotes per treated Vero cell respect to control ([2]; 25 µM): 24%; %ucell: percentage of uninfected Vero cells with amastigotes respect to untreated parasites ([2]; 25 µM): 15%; anti-trypomastigote activity (in words) [3]: excellent cytotoxic agent for this form of the parasite; IC50 (epimastigote T. cruzi; [5]): 2.8 µM; IC50 (epimastigote T. cruzi; NAC 1 mM, read-out: IC50,epi with excess of N-acetyl-L-cysteine (NAC)): 1.9 µM; IC50 (epimastigote T. cruzi; glutamate 1 mM, read-out: IC50,epi with excess of glutamate): 13.5 µM |
| CCOC(=O)N1CCC(=C2c3ccc(Cl)cc3CCc3cccnc32)CC1 [Lorat, Loratadine] | 8.21 | 0.95 | 7.8 | – |
| CCOC(=O)C1=C(COCCN)NC(C)=C(C(=O)OC)C1c1ccccc1Cl (centres unmarked) [Amlod, Amlodipine] | 7.00 | 13.7 | 95.7 | IC50 (epimastigote T. cruzi; [5]): ~25 µM |
| C#Cc1cccc(Nc2ncnc3cc(OCCOC)c(OCCOC)cc23)c1 [Erlo, Erlotinib] | – | – | – | anti-epimastigote activity in the initial screening (in words) [1]: did not display anti-T. cruzi activities in the assayed conditions |
